ChEMBL document CHEMBL1150412, “1,5-Diphenylpyrrole derivatives as antimycobacterial agents. Probing the influence on antimycobacterial activity of lipophilic substituents at the phenyl rings” (J Med Chem, 2008)
Values after ≈ are worked out from the molar mass of the structure shown.

How the values were obtained:
Mycobacterium avium = experiment: Antimycobacterial activity against Mycobacterium avium CIP 103317; format: functional
[1] = Protection index, ratio of MNTD50 for african green monkey Vero cells to MIC for Mycobacterium tuberculosis 103471; format: functional
Vero = experiment: Cytotoxicity against african green monkey Vero cells after 5 days; format: cell-based; details: chlorocebus sabaeus, 120 h
[2] = system: Mycobacterium tuberculosis; experiment: Antimycobacterial activity against Mycobacterium tuberculosis 103471; format: functional
[3] = system: Mycobacterium tuberculosis; experiment: Antimycobacterial activity against Mycobacterium tuberculosis H37Rv; format: functional
[4] = system: Mycolicibacterium smegmatis; experiment: Antimycobacterial activity against Mycobacterium smegmatis CIP 103599; format: functional
Mycobacterium marinum = experiment: Antimycobacterial activity against Mycobacterium marinum CIP 6423; format: functional
[5] = system: Mycobacterium tuberculosis; experiment: Antimycobacterial activity against Mycobacterium tuberculosis H37Rv in […] cells assessed as reduction in number of surviving bacteria at 0.5 ug/mL relative to control; format: functional
[6] = system: Mycobacterium tuberculosis; experiment: Antimycobacterial activity against Mycobacterium tuberculosis H37Rv in […] cells assessed as reduction in number of surviving bacteria at 1 ug/mL relative to control; format: functional
[7] = system: Mycobacterium tuberculosis; experiment: Antimycobacterial activity against Mycobacterium tuberculosis clinical isolates by agar dilution method; format: functional
[8] = system: Mycobacterium tuberculosis; experiment: Antimycobacterial activity against Mycobacterium tuberculosis H37Rv in […] cells assessed as reduction in number of surviving bacteria at 0.25 ug/mL relative to control; format: functional

SMILES | MIC (Mycobacterium avium) [µg/mL] | Ratio [1] | MNTD50 (Vero) [µg/mL] | MIC [2] [µg/mL] | MIC [3] [µg/mL] | MIC [4] [µg/mL] | MIC (Mycobacterium marinum) [µg/mL] | Activity [5] [%] | Activity [6] [%] | MIC [7] [µg/mL] | MIC50 [7] [µg/mL] | MIC90 [7] [µg/mL] | Activity [8] [%]
Cc1c(CN2CCN(C)CC2)cc(-c2ccc(Cl)cc2)n1-c1ccc(Cl)cc1 | 0.5 (≈ 1.21 µM) | 4 | 4 | 1 (≈ 2.41 µM) | 2 (≈ 4.83 µM) | 25 (≈ 60.3 µM) | 100 (≈ 241 µM) | – | – | – | – | – | –
Cc1ccc(-c2cc(CN3CCSCC3)c(C)n2-c2ccc(F)cc2)cc1 | 8 (≈ 21 µM) | 256 | 64 | 0.25 (≈ 0.657 µM) | 0.125 (≈ 0.328 µM) | 16 (≈ 42 µM) | 8 (≈ 21 µM) | – | – | – | – | – | –
CCCc1ccc(-n2c(-c3ccc(F)cc3)cc(CN3CCSCC3)c2C)cc1 | > 16 | 4 | 4 | 1 (≈ 2.45 µM) | – | 4 (≈ 9.79 µM) | 16 (≈ 39.2 µM) | – | – | – | – | – | –
CCc1ccc(-n2c(-c3ccc(F)cc3)cc(CN3CCSCC3)c2C)cc1 | > 16 | 1 | 2 | 2 (≈ 5.07 µM) | – | 2 (≈ 5.07 µM) | > 16 | – | – | – | – | – | –
Cc1c(CN2CCSCC2)cc(-c2ccc(Cl)cc2)n1-c1ccc(C(C)C)cc1 | 16 (≈ 37.6 µM) | 128 | 32 | 0.25 (≈ 0.588 µM) | 0.25 (≈ 0.588 µM) | > 16 | 16 (≈ 37.6 µM) | 84.21 | 98.74 | 0.25 (≈ 0.588 µM) | 0.25 (≈ 0.588 µM) | 0.5 (≈ 1.18 µM) | 47.37
CCc1ccc(-n2c(-c3ccc(Cl)cc3)cc(CN3CCSCC3)c2C)cc1 | 16 (≈ 38.9 µM) | 32 | 16 | 0.5 (≈ 1.22 µM) | 0.5 (≈ 1.22 µM) | 8 (≈ 19.5 µM) | 4 (≈ 9.73 µM) | – | – | – | – | – | –
CCCc1ccc(-c2cc(CN3CCSCC3)c(C)n2-c2ccc(F)cc2)cc1 | > 16 | 2 | 4 | 2 (≈ 4.89 µM) | – | > 16 | > 16 | – | – | – | – | – | –
Cc1c(CN2CCSCC2)cc(-c2ccc(C(C)C)cc2)n1-c1ccc(F)cc1 | 4 (≈ 9.79 µM) | 128 | 32 | 0.25 (≈ 0.612 µM) | 0.25 (≈ 0.612 µM) | > 16 | 8 (≈ 19.6 µM) | – | – | – | 0.5 (≈ 1.22 µM) | 0.5 (≈ 1.22 µM) | –
Cc1ccc(-c2cc(CN3CCSCC3)c(C)n2-c2ccc(Cl)cc2)cc1 | 16 (≈ 40.3 µM) | 128 | 64 | 0.5 (≈ 1.26 µM) | 0.5 (≈ 1.26 µM) | > 16 | > 16 | – | – | – | – | – | –
CCc1ccc(-c2cc(CN3CCSCC3)c(C)n2-c2ccc(Cl)cc2)cc1 | 16 (≈ 38.9 µM) | 64 | 16 | 0.25 (≈ 0.608 µM) | 0.25 (≈ 0.608 µM) | 8 (≈ 19.5 µM) | 8 (≈ 19.5 µM) | – | – | – | – | – | –
Cc1ccc(-n2c(-c3ccc(Cl)cc3)cc(CN3CCSCC3)c2C)cc1 | > 16 | 32 | 16 | 0.5 (≈ 1.26 µM) | 0.5 (≈ 1.26 µM) | 16 (≈ 40.3 µM) | 16 (≈ 40.3 µM) | – | – | – | – | – | –
CCCc1ccc(-n2c(-c3ccc(Cl)cc3)cc(CN3CCSCC3)c2C)cc1 | 16 (≈ 37.6 µM) | 128 | 32 | 0.25 (≈ 0.588 µM) | 0.25 (≈ 0.588 µM) | > 16 | 16 (≈ 37.6 µM) | 85.79 | 98.79 | – | 0.5 (≈ 1.18 µM) | 1 (≈ 2.35 µM) | 21.05
CCCc1ccc(-c2cc(CN3CCSCC3)c(C)n2-c2ccc(Cl)cc2)cc1 | 4 (≈ 9.41 µM) | 64 | 16 | 0.25 (≈ 0.588 µM) | 0.125 (≈ 0.294 µM) | > 16 | 4 (≈ 9.41 µM) | – | – | – | – | – | –
CCc1ccc(-c2cc(CN3CCSCC3)c(C)n2-c2ccc(F)cc2)cc1 | > 16 | 16 | 16 | 1 (≈ 2.53 µM) | – | > 16 | > 16 | – | – | – | – | – | –
Cc1c(CN2CCSCC2)cc(-c2ccc(F)cc2)n1-c1ccc(C(C)C)cc1 | > 16 | 0.5 | 8 | 16 (≈ 39.2 µM) | – | 8 (≈ 19.6 µM) | > 16 | – | – | – | – | – | –
Cc1c(CN2CCSCC2)cc(-c2ccc(C(C)C)cc2)n1-c1ccc(Cl)cc1 | 8 (≈ 18.8 µM) | 64 | 8 | 0.125 (≈ 0.294 µM) | 0.125 (≈ 0.294 µM) | 8 (≈ 18.8 µM) | 4 (≈ 9.41 µM) | – | – | – | – | – | –
[H]/N=C(/N)N[C@H]1[C@H](O)[C@@H](O)[C@H](O[C@@H]2O[C@@H](C)[C@](O)(C=O)[C@H]2O[C@@H]2O[C@@H](CO)[C@H](O)[C@@H](O)[C@@H]2NC)[C@@H](N/C(N)=N\[H])[C@@H]1O (stereo in doubt) [STREPTOMYCIN] | 8 (≈ 13.8 µM) | >128 | > 64 | 0.5 (≈ 0.86 µM) | 4 (≈ 6.88 µM) | 8 (≈ 13.8 µM) | 32 (≈ 55 µM) | – | – | – | – | – | –
NNC(=O)c1ccncc1 [ISONIAZID] | 32 (≈ 233 µM) | 128 | 32 | 0.125 (≈ 0.911 µM) | 0.25 (≈ 1.82 µM) | 64 (≈ 467 µM) | 16 (≈ 117 µM) | – | – | 0.125 (≈ 0.911 µM) | 0.125 (≈ 0.911 µM) | 0.25 (≈ 1.82 µM) | –
CO[C@H]1/C=C/O[C@@]2(C)Oc3c(C)c(O)c4c(O)c(c(/C=N/N5CCN(C)CC5)c(O)c4c3C2=O)NC(=O)/C(C)=C\C=C\[C@H](C)[C@H](O)[C@@H](C)[C@@H](O)[C@@H](C)[C@H](OC(C)=O)[C@@H]1C [RIFAMPIN] | 0.25 (≈ 0.304 µM) | 256 | 64 | 0.25 (≈ 0.304 µM) | 0.25 (≈ 0.304 µM) | 32 (≈ 38.9 µM) | 0.5 (≈ 0.608 µM) | 98.42 | 99.79 | – | – | – | 95.79
